Results taken from patent US12098217B2, “Fusion peptides as antimicrobial agents” (CENTRE NATIONAL DE LA RECHERCHE SCIENTIFIQUE, priority 2019, dated 2024).
Values after ≈ are worked out from the molar mass of the structure shown. Like-named read-outs stand apart in the source and are kept apart here. Square brackets hold non-standard residues; d marks the D form. Peptide text beside a SMILES is read from it. * marks the point of attachment. 5FAM = O=C1OC2(c3ccc(O)cc3Oc3cc(O)ccc32)c2ccc(C(=O)*)cc21; Phe(3,4-Cl2) = N[C@@H](Cc1ccc(Cl)c(Cl)c1)C(=O)O; Cha = N[C@@H](CC1CCCCC1)C(=O)O

Legend:
[1] = molecular target: T1, E. coli SC (^EcSC, beta ring, DnaN) (Escherichia coli, UniProt P0A988); test: ITC, peptide interaction with E. coli sliding clamp; type: binding
T1 construct: inferred from the pET15b vector and the Ni-NTA/imidazole purification; made in house; host or cells: E. coli BL21 (DE3) pLys
Description: The DnaN protein was expressed from plasmids pET15b, containing the dnaN gene from E. coli, transfected in BL21 (DE3) pLys E. coli strain. Cells were grown in LB at 37° C. to OD 0.5, then induced by IPTG (0.1 mM) at 28° C. overnight. DnaN protein was first enriched on a Ni-NTA column, eluted with an imidazole step (300 mM) and further purified on a Source Q column in buffer containing 20 mM Tris HCl pH 7.5, 0.5 mM EDTA and 10% glycerol, using a gradient from 0 to 0.5 M NaCl. After a final ultracentrifugation (45K, 1 h, 20° C.), soluble proteins were concentrated on a Centricon 30K (Millipore) in the same buffer and stored at 4° C. in 2 M ammonium sulfate.
ITC experiments were performed on a iTC200 (Microcal Malvern Panalytical) or PEAQ-ITC instrument (Microcal Malvern Panalytical). The E. coli SC were washed extensively with ITC buffer (R1 buffer: 10 mM Hepes pH 7.4, 0.15 M NaCl, 3 mM EDTA) on Centrikon 10K at 4° C. before ITC experiments. […] Similarly, E. coli 70S ribosome particles were also washed extensively with ITC 70S buffer (50 mM Tris HCl pH7.5, 30 mM KCl, 70 mM NH4Cl, 7 mM MgCl2, 1 mM DTT, 5% glycerol) on Centrikon 100K at 4° C. before ITC experiments. […] […] Data were corrected from control experiments in which peptides were injected in ITC buffer solution. Each titration was performed at least twice. Analyses of experimental data were performed with AFFINImeter software (https://www.affinimeter.com; S4S, Santiago de Compostela, Spain).

[2] = system: E. coli ATCC 25922 (DSM 1103) strain; type: cell-based; details: for MIC: ATCC 25922, 36 h
Description: (§1) E. coli strains were cultivated on either agar or liquid 1× Mueller Hinton broth unless specified. MIC assays were performed in duplicate in 96-well microtiter plates on the basis of the protocol recommended by the Clinical and Laboratory Standards Institute. Briefly, a mix of 5-6 fresh (less than 36 hours) colonies grown on MH agar plates were inoculated in 3 ml of MH broth and incubated for about 16 h at 37° C. under agitation. 30 μl of this saturated culture were inoculated in 3 ml of fresh medium and allowed to grow until OD600 nm of about 0.6-0.8. Dilution to an OD600 nm of 0.002 was made in MH broth. Within a time laps not exceeding 30 min, 50 μl of this cell suspension was added to 50 μl of MH broth (containing or not the peptide/antibiotic diluted in MH broth) in wells of a 96-well round bottom microwell plate (Greiner; final cell density about 2 to 5×10^5 cfu/ml). Plates were incubated at 37° C. for 18-24 h and final turbidity of each well was measured at 620 nm using a Multiskan FC microplate reader (Thermo Scientific). MIC was defined as the minimal antibiotic concentration that result in no increase of turbidity at that time. Each MIC determination was performed in duplicate and at least in two independent experiments. Plating of 75 μl of the content of the wells of interest on LB Agar plates was used to determine the MBC that is defined by a decrease of at least 99.9% of cell viability as compared to the number of viable cells in the inoculum (about 2 to 5×10^4 cfu).
The antimicrobial activities of these peptides have been tested against the E. coli ATCC 25922 (DSM 1103) strain in 1× Mueller-Hinton broth as mentioned above.
The antimicrobial activities of these peptides and controls have been tested against the E. coli ATCC 25922 (DSM 1103) strain in 1× Mueller-Hinton broth.

[3] = system: E. coli 70S ribosome (^Ec70S); test: ITC, peptide interaction with E. coli 70S ribosome; type: binding
Description: E. coli MRE600 cells were grown at 37° C. in LB medium until OD^600=1. Cells were centrifuged at 4° C., and pellets were resuspended in buffer A (20 mM Tris HCl pH 7.5; 200 mM NH4Cl; 20 mM MgCl2; 0.1 mM EDTA; 6 mM β-mercaptoethanol) and lysed using a French press at 1.6 kbar. The crude lysate was centrifuged (18 200 rpm) for 30 mn at 4° C. The supernatant was further centrifuged (47000 rpm) at 4° C. for 4 hours and the pellet resuspended in 12.5 ml of buffer A. This solution was laid on a 30% sucrose cushion and centrifuged (34 000 rpm) for 19 hours at 4° C. The ribosome pellet was resuspended in 12.5 ml buffer B (20 mM Tris HCl pH 7.5; 50 mM NH4Cl; 10 mM MgCl2; 0.1 mM EDTA; 6 mM β-mercaptoethanol) and centrifuged again (18 200 rpm) for 1 hour at 4° C. The supernatant was concentrated on Centrikon 100K (Millipore) and washed extensively with ITC 70S buffer. Ribosome concentration was determined by UV absorption at 260 nm. Samples were snap frozen in liquid nitrogen and kept at −80° C.
ITC experiments were performed on a iTC200 (Microcal Malvern Panalytical) or PEAQ-ITC instrument (Microcal Malvern Panalytical). The E. coli SC were washed extensively with ITC buffer (R1 buffer: 10 mM Hepes pH 7.4, 0.15 M NaCl, 3 mM EDTA) on Centrikon 10K at 4° C. before ITC experiments. […] Similarly, E. coli 70S ribosome particles were also washed extensively with ITC 70S buffer (50 mM Tris HCl pH7.5, 30 mM KCl, 70 mM NH4Cl, 7 mM MgCl2, 1 mM DTT, 5% glycerol) on Centrikon 100K at 4° C. before ITC experiments. Peptides (100 to 400 μM) were titrated at 30° C. (303.15 K) in sequential injections (usually 2 μl each) into a SC (20 or 30 μM) or 70S (10 to 15 μM) solution. Data were corrected from control experiments in which peptides were injected in ITC buffer solution. Each titration was performed at least twice. Analyses of experimental data were performed with AFFINImeter software (https://www.affinimeter.com; S4S, Santiago de Compostela, Spain).
The lack of interaction with the ribosome of E. coli has been measured by ITC at 30° C.:
The interactions of these peptides with the E. coli SC (beta ring) and the ribosome were measured by ITC at […]: […]

E. coli D22 strain = test: microbe, parasite or virus in culture; type: cell-based; details: D22 strain, 36 h
Excerpt: E. coli strain D22 (F-, IpxC101, proA23, lac-28, tsx-81, trp-30, his-51, tufA1, rpsL173(strR), ampCp-1 was purchased at E. coli Genetic Stock Center (Yale University) and used in the determination of MIC and in the peptide penetration assays. E. coli ATCC23724 cells were used to infect D. melanogaster flies. 70S ribosomes were purified from the E. coli MRE600 strain (Accession AY140951) and BL21 (DE3) pLys strain was used for production of the DnaN protein.
as §1

E. coli = details: cited from earlier work
[4] = ITC 25° C., E. coli SC (beta ring)
[5] = ITC, 30° C., E. coli ribosome, FITC-Onc112 series
[6] = ITC 30° C., Table 2A, ^EcSC, Ni = no specific interaction
[7] = ITC 30° C., Table 2B, ^Ec70S, Ni = no specific interaction, FITC peptides (*) values not well defined

T1 sequence (P0A988 whole entry): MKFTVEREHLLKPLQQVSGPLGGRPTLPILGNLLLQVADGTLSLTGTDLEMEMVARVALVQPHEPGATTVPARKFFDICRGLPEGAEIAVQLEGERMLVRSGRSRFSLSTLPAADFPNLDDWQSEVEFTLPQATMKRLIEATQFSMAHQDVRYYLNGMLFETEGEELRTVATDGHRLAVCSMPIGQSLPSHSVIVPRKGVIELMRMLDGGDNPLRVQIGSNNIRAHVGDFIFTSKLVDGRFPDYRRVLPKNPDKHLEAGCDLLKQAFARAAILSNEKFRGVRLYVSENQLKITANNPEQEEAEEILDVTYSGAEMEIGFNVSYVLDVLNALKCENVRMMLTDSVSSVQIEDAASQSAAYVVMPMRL

## CC[C@H](C)[C@H](NC(=O)[C@@H](CCCNC(=N)N)NC(=O)[C@H](CCCNC(=N)N)NC(=O)[C@@H]1CCCN1C(=O)[C@@H]1CCCN1C(=O)[C@H](CCCNC(=N)N)NC(=O)[C@@H]1CCCN1C(=O)[C@H](CCCNC(=N)N)NC(=O)[C@@H]1CCCN1C(=O)[C@H](CC(C)C)NC(=O)[C@H](Cc1ccc(O)cc1)NC(=O)[C@@H]1CCCN1C(=O)[C@@H]1CCCN1C(=O)[C@H](CCCCN)NC(=O)[C@H](CC(=O)O)NC(=O)[C@@H](NC(=O)[C@H](CCCNC(=N)N)NC(=O)[C@@H]1CCCN1C(=O)CNC(=O)[C@H](Cc1ccccc1)NC(=O)[C@H](CC(C)C)NC(=O)[C@H](CC(=O)O)NC(=O)[C@H](CC1CCCCC1)NC(=O)[C@H](CCC(N)=O)NC(C)=O)C(C)C)C(=O)N[C@@H](Cc1ccc(O)cc1)C(=O)N[C@@H](CC(N)=O)C(=O)N[C@H](CCCNC(=N)N)C(N)=O [CM1-76] (Ac-Q[Cha]DLFGPRVDKPPYLPRPRPPR[dR]IYN[dR]-NH2)
[1]; [4]
  ΔG: -9.0 kcal/mol
  ΔH: -10.7 kcal/mol
[2]
  MIC: 8 to 16 µM
[2]; E. coli ATCC 25922, MIC
  factor of improvement of antimicrobial activity versus CA3-30: 2
[3]; ITC 25° C.
  interaction with the E. coli ribosome (70S), in words: no interaction

## CC[C@H](C)[C@H](NC(=O)[C@@H](CCCNC(=N)N)NC(=O)[C@H](CCCNC(=N)N)NC(=O)[C@@H]1CCCN1C(=O)[C@@H]1CCCN1C(=O)[C@H](CCCNC(=N)N)NC(=O)[C@@H]1CCCN1C(=O)[C@H](CCCNC(=N)N)NC(=O)[C@@H]1CCCN1C(=O)[C@H](CC(C)C)NC(=O)[C@H](Cc1ccc(O)cc1)NC(=O)[C@@H]1CCCN1C(=O)[C@@H]1CCCN1C(=O)[C@H](CCCCN)NC(=O)[C@H](CC(=O)O)NC(=O)[C@@H](NC(=O)[C@H](CCCCN)NC(=O)c1ccc2c(c1)C(=O)OC21c2ccc(O)cc2Oc2cc(O)ccc21)C(C)C)C(=O)N[C@@H](Cc1ccc(O)cc1)C(=O)N[C@@H](CC(N)=O)C(=O)N[C@H](CCCNC(=N)N)C(=O)NCC(=O)N1CCC[C@H]1C(=O)N[C@@H](CCCNC(=N)N)C(=O)N[C@@H](CCC(N)=O)C(=O)N[C@@H](CC1CCCCC1)C(=O)N[C@@H](CC(=O)O)C(=O)N[C@@H](CC(C)C)C(=O)N[C@@H](Cc1ccccc1)C(=O)O [CM1-92] (5FAM-KVDKPPYLPRPRPPR[dR]IYN[dR]GPRQ[Cha]DLF-OH)
[2]
  MIC: 16 µM (≈ 61.5 µg/mL)
[3]; [5]
  Kd: > 50 µM

## CC[C@H](C)[C@H](NC(=O)[C@@H](CCCNC(=N)N)NC(=O)[C@H](CCCNC(=N)N)NC(=O)[C@@H]1CCCN1C(=O)[C@@H]1CCCN1C(=O)[C@H](CCCNC(=N)N)NC(=O)[C@@H]1CCCN1C(=O)[C@H](CCCNC(=N)N)NC(=O)[C@@H]1CCCN1C(=O)[C@H](CC(C)C)NC(=O)[C@H](Cc1ccc(O)cc1)NC(=O)[C@@H]1CCCN1C(=O)[C@@H]1CCCN1C(=O)[C@H](CCCCN)NC(=O)[C@H](CC(=O)O)NC(=O)[C@@H](NC(=O)[C@H](CCCCN)NC(=O)c1ccc2c(c1)C(=O)OC21c2ccc(O)cc2Oc2cc(O)ccc21)C(C)C)C(=O)N[C@@H](Cc1ccc(O)cc1)C(=O)N[C@@H](CC(N)=O)C(=O)N[C@H](CCCNC(=N)N)C(=O)NCC(=O)N1CCC[C@H]1C(=O)N[C@@H](CCCNC(=N)N)C(=O)N[C@@H](CCC(N)=O)C(=O)N[C@@H](CC1CCCCC1)C(=O)N[C@@H](CC(=O)O)C(=O)N[C@@H](CC(C)C)C(=O)N[C@@H](Cc1ccc(Cl)c(Cl)c1)C(=O)O [CM1-94] (5FAM-KVDKPPYLPRPRPPR[dR]IYN[dR]GPRQ[Cha]DL[Phe(3,4-Cl2)]-OH; N-terminus assumed)
[2]
  MIC: 4 to 8 µM
[3]; [5]
  Kd: > 10 µM

## CC[C@H](C)[C@H](NC(=O)[C@@H]1CCCN1C(=O)[C@H](CCCNC(=N)N)NC(=O)[C@@H]1CCCN1C(=O)[C@@H]1CCCN1C(=O)[C@@H](NC(=O)[C@@H]1CCCN1C(=O)[C@H](CCCNC(=N)N)NC(=O)[C@@H]1CCCN1C(=O)[C@H](CC(C)C)NC(=O)[C@H](Cc1ccc(O)cc1)NC(=O)[C@H](CO)NC(=O)CNC(=O)[C@H](CCCCN)NC(=O)[C@H](CC(=O)O)NC(=O)[C@@H](N)C(C)C)[C@@H](C)O)C(=O)N[C@@H](Cc1ccc(O)cc1)C(=O)N[C@@H](CC(N)=O)C(=O)N[C@@H](CCCNC(=N)N)C(=O)N[C@@H](CC(N)=O)C(N)=O [Py, reference compound] (H-VDKGSYLPRPTPPRPIYNRN-NH2)
[1]; ITC 30° C.
  interaction with ^EcSC, in words: do not interact
[1]; ITC 30° C. (303.15 K), Table 2A, ^EcSC, Ni = no specific interaction
  ΔH (kcal/mole): Ni
[1]; [6]
  Kd (nM): Ni
  ΔG (kcal/mole): Ni
  −TΔS (kcal/mole): Ni
[3]; ITC 30° C., Table 2B, ^Ec70S, Ni = no specific interaction
  Kd: 0.0155 µM
[3]; [7]
  ΔG: -10.9 kcal/mol
  ΔH: -19.2 kcal/mol
  −TΔS: 8.23 kcal/mol
E. coli D22 strain
  MBC: 8 µg/mL (≈ 3.42 µM)
E. coli
  MIC of previous reports: 3.69 to 7.56 µM
E. coli; other E. coli strains and/or culture media
  MIC of previous reports: 9 to 18 µg/mL
